US9315475B2 (MERCK SHARP & DOHME CORP., priority 2011, dated 2016)

Columns and labels:
wildtype HIV-1 protease = target: T1, wildtype HIV-1 protease (Human immunodeficiency virus type 1 group M subtype B, UniProt P04585); assay: Assay for inhibition of microbial expressed HIV protease (Pepcleav); type: biochemical; conditions: wild type HIV-1 protease expressed in E. coli, peptide substrate, pH 5.5; mean of at least two independent experiments; read-out: Pepcleav
T1 construct: the wildtype HIV-1 protease (which was expressed in Escherichia coli); made in house; host or cells: Escherichia coli
Procedure, shortened: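 E. coli-expressed wild-type HIV-1 protease (20 pM) preincubated 30 min at room temperature with inhibitor in pH 5.5 sodium acetate/NaCl/BSA buffer, then 400 μM Val-Ser-Gln-Asn-(βnaphthyl)Ala-Pro-Ile-Val added for 1 h at 30 °C. Quenched with formic acid; product quantified by LC-MS/MS peak area, indinavir internal standard.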

HIV-1 (H9IIIB strain) = assay: Antiviral acute infection assay in cell culture (Spread); type: cell-based; conditions: Human immunodeficiency virus 1, T-lymphoid, HIV-1 H9IIIB infection of MT-4 human T-lymphoid cells in 10% FBS; mean of at least two independent experiments
Excerpt: Antiviral Assays in Cell Culture (“Spread”)
Acute Infection Assay (“Spread”) data were generated using HIV-1 (H9IIIB strain) infection of MT-4 human T-lymphoid cells in 10% FBS, and according to the methods disclosed by J. P. Vacca et al, “L-735,524: An orally bioavailable human immunodeficiency virus type 1 protease inhibitor,” Proc. Natl. Acad. Sci. USA, Vol. 91, pp. 4096-4100 (April 1994).

HIV = conditions: HIV-infected patients, in combination with nucleoside reverse transcriptase inhibitors; cited from earlier work

Compound | IC50 (wildtype HIV-1 protease) [nM] | EC50 (HIV-1 (H9IIIB strain)) [nM] | effect on HIV viral loads and CD4 cell counts (HIV)
COC(=O)N[C@H](C(=O)Nc1cccc(F)c1CC[C@@H]1CN[C@H](COC(=O)NCC(F)(F)F)CO1)[C@H](c1ccc(F)cc1)c1ccc(OC)cc1 [Example 299, (βS)-β-(4-fluorophenyl)-N-(3-fluoro-2-{2-[(2R, 5S)-5-({[(2,2,2-trifluoroethyl)carbamoyl]oxy}methyl)morpholin-2-yl]ethyl}phenyl)-Nα-(methoxy-carbonyl)-O-methyl-L-tyrosinamide] | 15 | 32 | 
COC(=O)N[C@H](C(=O)Nc1cncc(F)c1CC[C@@H]1CN[C@H](COC(=O)NCC(F)(F)F)CO1)[C@@H](c1ccc(F)cc1)c1cc(F)ccc1F [Example 300, (βS)-2,5-difluoro-β-(4-fluorophenyl)-N-(5-fluoro-4-{2-[(2R,5S)-5-({[(2,2,2-trifluoroethyl)carbamoyl]oxy}methyl)morpholin-2-yl]ethyl}pyridin-3-yl)-Nα-(methoxycarbonyl)-L-phenylalaninamide] | 1.6 | 18 | 
COC(=O)N[C@H](C(=O)Nc1cccc(F)c1CC[C@@H]1CN[C@H](COC(=O)NCC(F)(F)F)CO1)[C@@H](c1ccc(F)cc1)c1cccc(OC(F)(F)F)c1 [Example 303, (βS)-4-fluoro-N-(3-fluoro-2-{2-[(2R, 5S)-5-({[(2,2,2-trifluoroethyl)carbamoyl]oxy}methyl)morpholin-2-yl]ethyl}phenyl)-Nα-(methoxy-carbonyl)-β-[3-(trifluoromethoxy)phenyl]-L-phenylalaninamide] | 5.3 | 24 | 
COC(=O)N[C@H](C(=O)Nc1cccc(F)c1CC[C@@H]1CN[C@H](COC(=O)NCC(F)(F)F)CO1)[C@H](c1ccccc1)c1cccc(OC)c1 [Example 305, (βR)-N-(3-fluoro-2-{2-[(2R,5S)-5-({[(2,2,2-trifluoroethyl)carbamoyl]oxy}methyl)morpholin-2-yl]ethyl}phenyl)-3-methoxy-Nα-(methoxy-carbonyl)-β-phenyl-L-phenylalaninamide] | 230 | 42 | 
COC(=O)N[C@H](C(=O)Nc1cccc(F)c1CC[C@@H]1CN[C@H](COC(=O)NCC(F)(F)F)CO1)C(c1cccc(F)c1)c1cccc(F)c1 [Example 307, 3-fluoro-β-(3-fluorophenyl)-N-(3-fluoro-2-{2-[(2R,5S)-5-({[(2,2,2-trifluoroethyl)carbamoyl]oxy}methyl)morpholin-2-yl]ethyl}phenyl)-Nα-(methoxy-carbonyl)-L-phenylalaninamide] | 3 | 14 | 
CC(C)(C)NC(=O)[C@@H]1CN(Cc2cccnc2)CCN1C[C@@H](O)C[C@@H](Cc1ccccc1)C(=O)N[C@H]1c2ccccc2C[C@H]1O [Indinavir, indinavir] |  |  | highly effective in reducing HIV viral loads and increasing CD4 cell counts
